{"source": "patent US8778958B2", "about": "“Synthesis of metabolically stable agents for alcohol and drug abuse” (priority 2008, dated 2014)", "key": {"Solubility in H2O": {"experiment": "Solubility in H2O", "details": "for Solubility in H2O: salt as labelled; for solubility: water"}, "μ-opioid receptor": {"molecular_target": "T1, μ-opioid receptor (Homo sapiens, UniProt P35372)", "T1 construct": "expressed in transfected cells; host or cells: CHO cells", "T1 sequence (P35372 whole entry)": "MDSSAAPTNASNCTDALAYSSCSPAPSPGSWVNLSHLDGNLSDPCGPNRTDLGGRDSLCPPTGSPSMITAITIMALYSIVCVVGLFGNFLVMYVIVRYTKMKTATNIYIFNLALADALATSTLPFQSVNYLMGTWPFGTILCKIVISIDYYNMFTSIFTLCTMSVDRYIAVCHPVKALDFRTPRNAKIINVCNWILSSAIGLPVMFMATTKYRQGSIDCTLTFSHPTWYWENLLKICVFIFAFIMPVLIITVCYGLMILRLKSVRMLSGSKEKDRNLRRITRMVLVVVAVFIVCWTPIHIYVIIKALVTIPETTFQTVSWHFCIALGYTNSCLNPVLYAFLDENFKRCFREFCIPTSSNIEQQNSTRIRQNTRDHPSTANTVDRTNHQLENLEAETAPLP", "experiment": "biochemical", "assay_type": "binding"}, "δ-opioid receptor": {"molecular_target": "T2, δ-opioid receptor (Homo sapiens, UniProt P41143)", "T2 construct": "expressed in transfected cells; host or cells: CHO cells", "T2 sequence (P41143 whole entry)": "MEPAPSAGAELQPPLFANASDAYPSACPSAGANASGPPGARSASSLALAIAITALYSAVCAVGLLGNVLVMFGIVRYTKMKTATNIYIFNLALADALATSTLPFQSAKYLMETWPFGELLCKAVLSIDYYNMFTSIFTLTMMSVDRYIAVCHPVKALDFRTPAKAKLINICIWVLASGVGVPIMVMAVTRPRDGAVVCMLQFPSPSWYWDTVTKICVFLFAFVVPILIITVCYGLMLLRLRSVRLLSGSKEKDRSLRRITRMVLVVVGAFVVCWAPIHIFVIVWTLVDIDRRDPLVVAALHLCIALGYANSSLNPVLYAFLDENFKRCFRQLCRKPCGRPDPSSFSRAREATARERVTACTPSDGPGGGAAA", "experiment": "biochemical", "assay_type": "binding", "details": "Table 1b; for Inhibition of agonist binding, δ: concentration not given; for Ki: N-oxides"}, "κ-opioid receptor": {"molecular_target": "T3, κ-opioid receptor (Homo sapiens, UniProt P41145)", "T3 construct": "expressed in transfected cells; host or cells: CHO cells", "T3 sequence (P41145 whole entry)": "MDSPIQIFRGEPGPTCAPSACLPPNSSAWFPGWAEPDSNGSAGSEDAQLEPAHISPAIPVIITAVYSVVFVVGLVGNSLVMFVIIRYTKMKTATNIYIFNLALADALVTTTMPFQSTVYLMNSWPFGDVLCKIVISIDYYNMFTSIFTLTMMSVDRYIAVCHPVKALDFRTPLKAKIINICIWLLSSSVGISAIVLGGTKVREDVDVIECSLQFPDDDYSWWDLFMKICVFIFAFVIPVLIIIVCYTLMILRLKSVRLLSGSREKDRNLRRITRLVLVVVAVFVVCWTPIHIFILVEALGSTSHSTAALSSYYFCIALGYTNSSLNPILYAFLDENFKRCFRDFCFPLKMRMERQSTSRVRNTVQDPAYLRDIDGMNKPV", "experiment": "biochemical", "assay_type": "binding", "details": "read-out: Ki (nM) ± SEM, κ"}, "[1]": {"details": "Ki (nM) ± SEM, μ, Table 1b, N-oxides"}}, "note": "Read-outs that look alike come from different tables or passages of the source."}
{"compound": "CN(C(=O)c1ccc(Cl)c(Cl)c1)[C@@H]1CC[C@@]2(O)[C@H]3Cc4ccc(O)c5c4[C@@]2(CCN3CC2CC2)[C@H]1O5.O=C(O)C(=O)O", "note": "[18b—Oxalate, 6-β-(3′,4′-Dichloro)-N-methylbenzamido-14-hydroxy-17-(cyclopropylmethyl)nordesmorphine oxalate]", "values": [{"measurement": "Solubility in H2O", "setting": "Solubility in H2O", "value": 16000, "unit": "µg/mL"}]}
{"compound": "CN(C(=O)c1ccc(I)cc1)[C@H]1CC[C@@]2(O)[C@H]3Cc4ccc(O)c5c4[C@@]2(CCN3CC2CC2)[C@H]1O5.O=C(O)C(=O)O", "note": "[15a—Oxalate, 6-α-(4′-Iodo)-N-methylbenzamido-14-hydroxy-17-(cyclopropylmethyl)nordesmorphine oxalate]", "values": [{"measurement": "Solubility in H2O", "setting": "Solubility in H2O", "value": 5000, "unit": "µg/mL"}]}
{"compound": "O=C(N[C@@H]1CC[C@@]2(O)[C@H]3Cc4ccc(O)c5c4[C@@]2(CCN3CC2CC2)[C@H]1O5)c1ccc(C(F)(F)F)cc1.O=C(O)C(=O)O", "note": "[Compound 5-oxalate, 6-β-(4′-Trimethylfluoro)benzamido-14-hydroxy-17-(cyclopropylmethyl)nordesmorphine-oxalate]", "values": [{"measurement": "Solubility in H2O", "setting": "Solubility in H2O", "value": 1000, "unit": "µg/mL"}]}
{"compound": "CN(C(=O)c1ccc(Br)cc1)[C@@H]1CC[C@@]2(O)[C@H]3Cc4ccc(O)c5c4[C@@]2(CCN3CC2CC2)[C@H]1O5.O=C(O)C(=O)O", "note": "[14b. Oxalate, 6-β-(4′-Bromo)-N-methylbenzamido-14-hydroxy-17-(cyclopropylmethyl)nordesmorphine Oxalate]", "values": [{"measurement": "Solubility in H2O", "setting": "Solubility in H2O", "value": 20000, "unit": "µg/mL"}]}
{"compound": "CN(C(=O)c1ccc(Cl)c(Cl)c1)[C@H]1CC[C@@]2(O)[C@H]3Cc4ccc(O)c5c4[C@@]2(CCN3CC2CC2)[C@H]1O5.O=C(O)C(=O)O", "note": "[18a—Oxalate, 6-α-(3′,4′-Dichloro)-N-methylbenzamido-14-hydroxy-17-(cyclopropylmethyl)nordesmorphine oxalate]", "values": [{"measurement": "Solubility in H2O", "setting": "Solubility in H2O", "value": 6700, "unit": "µg/mL"}]}
{"compound": "CN(C(=O)c1ccc(C(F)(F)F)cc1)[C@@H]1CC[C@@]2(O)[C@H]3Cc4ccc(O)c5c4[C@@]2(CCN3CC2CC2)[C@H]1O5.O=C(O)C(=O)O", "note": "[13b—Oxalate, 6-β-(4′-Trifluoromethyl)-N-methylbenzamido-14-hydroxy-17-(cyclopropylmethyl)nordesmorphine oxalate]", "values": [{"measurement": "Solubility in H2O", "setting": "Solubility in H2O", "value": 4700, "unit": "µg/mL"}]}
{"compound": "Cc1ccc(C(=O)N[C@@H]2CC[C@@]3(O)[C@H]4Cc5ccc(O)c6c5[C@@]3(CCN4CC3CC3)[C@H]2O6)cc1.O=C(O)C(=O)O", "note": "[Compound 4-oxalate, 6-β-(4′-Methyl)benzamido-14-hydroxy-17-(cyclopropylmethyl) nordesmorphine oxalate]", "values": [{"measurement": "Solubility in H2O", "setting": "Solubility in H2O", "value": 2000, "unit": "µg/mL"}]}
{"compound": "CN(C(=O)c1ccc(Cl)cc1)[C@H]1CC[C@@]2(O)[C@H]3Cc4ccc(O)c5c4[C@@]2(CCN3CC2CC2)[C@H]1O5.O=C(O)C(=O)O", "note": "[17a—Oxalate, 6-α-(4′-Chloro)-N-methylbenzamido-14-hydroxy-17-(cyclopropylmethyl)nordesmorphine oxalate]", "values": [{"measurement": "Solubility in H2O", "setting": "Solubility in H2O", "value": 10000, "unit": "µg/mL"}]}
{"compound": "CC(C)(C)c1ccc(C(=O)N[C@@H]2CC[C@@]3(O)[C@H]4Cc5ccc(O)c6c5[C@@]3(CCN4CC3CC3)[C@H]2O6)cc1.O=C(O)C(=O)O", "note": "[Compound 8-oxalate, 6-β-(4′-t-Butyl)benzamido-14-hydroxy-17-(cyclopropylmethyl)nordesmorphine-oxalate]", "values": [{"measurement": "Solubility in H2O", "setting": "Solubility in H2O", "value": 6000, "unit": "µg/mL"}]}
{"compound": "17-Cyclopropylmethyl-3,14-β-dihydroxy-4,5α-epoxy-6β-N-methyl-(4′-iodo)morphinan-N-oxide [Compound 62]", "values": [{"measurement": "Ki", "setting": "μ-opioid receptor; read-out: Ki (nM) ± SEM, μ", "value": "408 ± 11.5", "unit": "nM"}, {"measurement": "Inhibition of agonist binding, δ", "setting": "δ-opioid receptor", "value": "<50", "unit": "% inh"}, {"measurement": "Ki", "setting": "κ-opioid receptor; Table 1b, N-oxides", "value": "224 ± 15.7", "unit": "nM"}]}
{"compound": "CN(C(=O)c1ccc(I)cc1)[C@@H]1CC[C@@]2(O)[C@H]3Cc4ccc(O)c5c4[C@@]2(CCN3CC2CC2)[C@H]1O5.O=C(O)C(=O)O", "note": "[15b—Oxalate, 6-β-(4′-Iodo)-N-methylbenzamido-14-hydroxy-17-(cyclopropylmethyl)nordesmorphine oxalate]", "values": [{"measurement": "Solubility in H2O", "setting": "Solubility in H2O", "value": 20000, "unit": "µg/mL"}]}
{"compound": "O=C(/C=C/c1ccoc1)N[C@@H]1CC[C@@]2(O)[C@H]3Cc4ccc(O)c5c4[C@@]2(CCN3CC2CC2)[C@H]1O5.O=C(O)C(=O)O", "note": "(relative stereo) [Compound 19b.Oxalate, 17-Cyclopropylmethyl-3,14β-dihydroxy-4,5α-epoxy-6β-[-trans-3-(3-furyl)acrylamido]morphinan oxalate]", "values": [{"measurement": "solubility", "setting": "Solubility in H2O", "value": 24000, "unit": "µg/mL"}]}
{"compound": "CN(C(=O)c1ccc(Cl)cc1)[C@H]1CC[C@@]2(O)[C@H]3Cc4ccc(O)c5c4[C@@]2(CC[N+]3([O-])CC2CC2)[C@H]1O5", "note": "(stereo partly drawn) [Compound 50, 17-Cyclopropylmethyl-3,14-β-dihydroxy-4,5α-epoxy-6α-N-methyl-[(4′-chloro)benzamido]morphinan-N-oxide]", "values": [{"measurement": "Ki", "setting": "μ-opioid receptor; read-out: Ki (nM) ± SEM, μ", "value": "369 ± 18", "unit": "nM"}, {"measurement": "Ki", "setting": "δ-opioid receptor; read-out: Ki (nM) ± SEM, δ", "value": "3330 ± 160", "unit": "nM"}, {"measurement": "Ki", "setting": "κ-opioid receptor; Table 1b, N-oxides", "value": "77 ± 8", "unit": "nM"}]}
{"compound": "CN(C(=O)c1ccc(Br)cc1)[C@H]1CC[C@@]2(O)[C@H]3Cc4ccc(O)c5c4[C@@]2(CCN3CC2CC2)[C@H]1O5.O=C(O)C(=O)O", "note": "[14a—Oxalate, 6-α-(4′-Bromo)-N-methylbenzamido-14-hydroxy-17-(cyclopropylmethyl)nordesmorphine oxalate]", "values": [{"measurement": "Solubility in H2O", "setting": "Solubility in H2O", "value": 6700, "unit": "µg/mL"}]}
{"compound": "CN(C(=O)c1ccc(C(C)(C)C)cc1)[C@H]1CC[C@@]2(O)[C@H]3Cc4ccc(O)c5c4[C@@]2(CCN3CC2CC2)[C@H]1O5.O=C(O)C(=O)O", "note": "[16a—Oxalate, 6-α-(4′-t-Butyl)-N-methylbenzamido-14-hydroxy-17-(cyclopropylmethyl)nordesmorphine oxalate]", "values": [{"measurement": "Solubility in H2O", "setting": "Solubility in H2O", "value": 3300, "unit": "µg/mL"}]}
{"compound": "CN(C)c1ccc(C(=O)N[C@@H]2CC[C@@]3(O)[C@H]4Cc5ccc(O)c6c5[C@@]3(CC[N+]4([O-])CC3CC3)[C@H]2O6)cc1", "note": "(stereo partly drawn) [Compound 24, 17-Cyclopropylmethyl-3,14β-dihydroxy-4,5α-epoxy-6β-[(4′-dimethylamino)benzamido]morphinan-N-oxide]", "values": [{"measurement": "Ki", "setting": "μ-opioid receptor; read-out: Ki (nM) ± SEM, μ", "value": "478 ± 23", "unit": "nM"}, {"measurement": "Ki", "setting": "δ-opioid receptor; read-out: Ki (nM) ± SEM, δ", "value": "5850 ± 560", "unit": "nM"}, {"measurement": "Ki", "setting": "κ-opioid receptor; Table 1b, N-oxides", "value": "227 ± 48.1", "unit": "nM"}]}
{"compound": "CN(C(=O)/C=C/c1ccoc1)[C@@H]1CC[C@@]2(O)[C@H]3Cc4ccc(O)c5c4[C@@]2(CCN3CC2CC2)[C@H]1O5.O=C(O)C(=O)O", "note": "(relative stereo) [Compound 20b-oxalate, 17-Cyclopropylmethyl-3,14β-dihydroxy-4,5α-epoxy-6β-[N-methyl-trans-3-(3-furyl)acrylamido]morphinan oxalate]", "values": [{"measurement": "solubility", "setting": "Solubility in H2O", "value": 32000, "unit": "µg/mL"}]}
{"compound": "N#Cc1cccc(C(=O)N[C@@H]2CC[C@@]3(O)[C@H]4Cc5ccc(O)c6c5[C@@]3(CC[N+]4([O-])CC3CC3)[C@H]2O6)c1", "note": "(stereo partly drawn) [Compound 53, 17-Cyclopropylmethyl-3,14β-dihydroxy-4,5α-epoxy-6β-[(3′ cyano)benzamido]morphinan-N-oxide]", "values": [{"measurement": "Ki", "setting": "μ-opioid receptor; [1]", "value": "117 ± 7.8", "unit": "nM"}, {"measurement": "Inhibition of agonist binding, δ", "setting": "δ-opioid receptor", "value": "<50", "unit": "% inh"}, {"measurement": "Ki", "setting": "κ-opioid receptor", "value": "426 ± 21.5", "unit": "nM"}]}
{"compound": "CN(C(=O)c1ccc(I)cc1)C1CCC2(O)C3Cc4ccc(O)c5c4C2(CC[N+]3([O-])CC2CC2)C1O5", "note": "(stereo not drawn) [Compound 54, 17-Cyclopropylmethyl-3,14-β-dihydroxy-4,5α-epoxy-6β-N-methyl-[(4′-iodo)benzamido]morphinan-N-oxide]", "values": [{"measurement": "Ki", "setting": "μ-opioid receptor; [1]", "value": "148 ± 9.3", "unit": "nM"}, {"measurement": "Ki", "setting": "δ-opioid receptor; Ki (nM) ± SEM, δ", "value": "3060 ± 271", "unit": "nM"}, {"measurement": "Ki", "setting": "κ-opioid receptor", "value": "117 ± 10", "unit": "nM"}]}
{"compound": "CN(C(=O)/C=C/c1ccoc1)[C@@H]1CC[C@@]2(O)[C@H]3Cc4ccc(O)c5c4[C@@]2(CC[N+]3([O-])CC2CC2)[C@H]1O5", "note": "(relative stereo) [Compound 44, 17-Cyclopropylmethyl-3,14β-dihydroxy-4,5α-epoxy-6β-[N-methyl-trans-3-(3-furyl)acrylamido]morphinan-N-oxide]", "values": [{"measurement": "Ki", "setting": "μ-opioid receptor; [1]", "value": "65 ± 7.7", "unit": "nM"}, {"measurement": "Ki", "setting": "δ-opioid receptor; Ki (nM) ± SEM, δ", "value": "2510 ± 231", "unit": "nM"}, {"measurement": "Ki", "setting": "κ-opioid receptor", "value": "3.9 ± 0.5", "unit": "nM"}]}
